Test results: patent publication US9085555B2, “Complement pathway modulators and uses thereof” (priority 2011, dated 2015)
Structures can show the parent of a compound that is named as a salt.

These compounds were tested against Factor D (Homo sapiens (Human), UniProt P00746) (assay: biochemical). Conditions: not given.
Chain of Factor D (P00746 26-253): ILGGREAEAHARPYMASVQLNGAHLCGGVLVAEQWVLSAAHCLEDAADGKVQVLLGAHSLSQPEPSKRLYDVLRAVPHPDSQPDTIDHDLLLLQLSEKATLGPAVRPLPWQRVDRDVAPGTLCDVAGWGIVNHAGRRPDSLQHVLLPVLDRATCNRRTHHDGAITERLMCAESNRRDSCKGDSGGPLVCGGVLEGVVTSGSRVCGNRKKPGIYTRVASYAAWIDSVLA
Assay type: biochemical
For `[2H]C([2H])([2H])C(=O)c1cn(CC(=O)N2C[C@H](F)[C@@H](OC)[C@H]2C(=O)NCc2cccc(Cl)c2F)c2ccccc12` [Example 619, (2S,3S,4S)-1-[2-(3-Acetyl-d3-indol-1-yl)-acetyl]-4-fluoro-3-methoxy-pyrrolidine-2-carboxylic acid 3-chloro-2-fluoro-benzylamide], the IC50 was 14 nM. `[2H]C([2H])([2H])O[C@H]1[C@@H](C(=O)NCc2cccc(Cl)c2F)N(C(=O)Cn2cc(C(C)=O)c3ccccc32)C[C@@H]1F` [Example 620, (2S,3S,4S)-1-[2-(3-Acetyl-indol-1-yl)-acetyl]-4-fluoro-3-methoxy-d3-pyrrolidine-2-carboxylic acid 3-chloro-2-fluoro-benzylamide] showed an IC50 of 17 nM.

Same assay, conditions: read-out: IC50
In the case of `CC(=O)c1cn(CC(=O)N2C[C@](C)(F)C[C@H]2C(=O)NCc2cccc(Cl)c2F)c2cc(C(=O)O)ccc12` [Example 599, 3-Acetyl-1-{2-[(2S,4R)-2-(3-chloro-2-fluoro-benzylcarbamoyl)-4-fluoro-4-methyl-pyrrolidin-1-yl]-2-oxo-ethyl}-1H-indole-6-carboxylic acid], the IC50 is reported as 46 nM. `CC(=O)c1cn(CC(=O)N2[C@@H]3C[C@@H]3C[C@H]2C(=O)NCc2cccc(Cl)c2F)c2c(C(=O)O)cccc12` [Example 601, 3-Acetyl-1-{2-[(1R,3S,5R)-3-(3-chloro-2-fluoro-benzylcarbamoyl)-2-aza-bicyclo[3.1.0]hex-2-yl]-2-oxo-ethyl}-1H-indole-7-carboxylic acid] was tested, and the IC50 was 110 nM. `CC(=O)c1cn(CC(=O)N2C[C@H](F)C[C@H]2C(=O)NCc2cccc(Cl)c2F)c2cc(OCc3ccc(C(=O)O)cc3)ccc12` [Example 602, 4-(3-Acetyl-1-{2-[(2S,4R)-2-(3-chloro-2-fluoro-benzylcarbamoyl)-4-fluoro-pyrrolidin-1-yl]-2-oxo-ethyl}-1H-indol-6-yloxymethyl)-benzoic acid] showed an IC50 of 227 nM. Compound `CC(=O)c1cn(CC(=O)N2[C@@H]3C[C@@H]3C[C@H]2C(=O)NCc2cccc(Cl)c2F)c2ccc(C(=O)O)cc12` [Example 603, 3-Acetyl-1-{2-[(1R,3S,5R)-3-(3-chloro-2-fluoro-benzylcarbamoyl)-2-aza-bicyclo[3.1.0]hex-2-yl]-2-oxo-ethyl}-1H-indole-5-carboxylic acid] has an IC50 of 1610 nM. With `CC(=O)c1cn(CC(=O)N2C[C@H](F)C[C@H]2C(=O)NCc2cccc(Cl)c2F)c2cc(CO)ccc12` [Example 604, (2S,4R)-1-[2-(3-Acetyl-6-hydroxymethyl-indol-1-yl)-acetyl]-4-fluoro-pyrrolidine-2-carboxylic acid 3-chloro-2-fluoro-benzylamide] the IC50 was 37 nM. `CC(=O)c1cn(CC(=O)N2C[C@H](F)C[C@H]2C(=O)NCc2cc(C(=O)O)cc(Cl)c2F)c2ccccc12` [Example 605, 3-[({(2S,4R)-1-[2-(3-Acetyl-indol-1-yl)-acetyl]-4-fluoro-pyrrolidine-2-carbonyl}-amino)-methyl]-5-chloro-4-fluoro-benzoic acid] showed an IC50 of 54 nM. Compound `CC(=O)c1cn(CC(=O)N2[C@@H]3C[C@@H]3C[C@H]2C(=O)NCc2cc(C(=O)O)cc(Cl)c2F)c2ccccc12` [Example 606, 3-[({(1R,3S,5R)-2-[2-(3-Acetyl-indol-1-yl)-acetyl]-2-aza-bicyclo[3.1.0]hexane-3-carbonyl}-amino)-methyl]-5-chloro-4-fluoro-benzoic acid] has an IC50 of 14 nM. In the case of `CC(=O)c1cn(CC(=O)N2C[C@@](F)(CN)C[C@H]2C(=O)NCc2cccc(Cl)c2F)c2ccccc12` [Example 607, (2S,4S)-1-[2-(3-Acetyl-indol-1-yl)-acetyl]-4-aminomethyl-4-fluoro-pyrrolidine-2-carboxylic acid 3-chloro-2-fluoro-benzylamide], the IC50 is reported as 28 nM. `CN[C@H]1C[C@@H](C(=O)NCc2cccc(Cl)c2F)N(C(=O)Cn2cc(C(C)=O)c3ccccc32)C1` [Example 608, (2S,4S)-1-[2-(3-Acetyl-indol-1-yl)-acetyl]-4-methylamino-pyrrolidine-2-carboxylic acid 3-chloro-2-fluoro-benzylamide] gave an IC50 of 1840 nM. `COCCN[C@H]1C[C@@H](C(=O)NCc2cccc(Cl)c2F)N(C(=O)Cn2cc(C(C)=O)c3ccccc32)C1` [Example 609, (2S,4S)-1-[2-(3-Acetyl-indol-1-yl)-acetyl]-4-(2-methoxy-ethylamino)-pyrrolidine-2-carboxylic acid 3-chloro-2-fluoro-benzylamide] showed an IC50 of 1560 nM. `CC(=O)c1cn(CC(=O)N2[C@H](C(=O)NCc3cccc(Cl)c3F)C[C@@]3(CO)C[C@@H]23)c2ccccc12` [Example 611, (1R,3S,5S)-2-[2-(3-Acetyl-indol-1-yl)-acetyl]-5-hydroxymethyl-2-aza-bicyclo[3.1.0]hexane-3-carboxylic acid 3-chloro-2-fluoro-benzylamide] gave an IC50 of 141 nM. With `CC(=O)c1cn(CC(=O)N2C[C@@H]3C[C@@H]3[C@H]2C(=O)N[C@H](CO)c2cccc(Cl)c2F)c2ccccc12` [Example 612, (1S,2S,5R)-3-[2-(3-Acetyl-indol-1-yl)-acetyl]-3-aza-bicyclo[3.1.0]hexane-2-carboxylic acid [(S)-1-(3-chloro-2-fluoro-phenyl)-2hydroxy-ethyl]-amide] the IC50 was 3430 nM. `CC(=O)c1cn(CC(=O)N2[C@@H]3C[C@@H]3C[C@H]2C(=O)N[C@H](CO)c2cccc(Cl)c2F)c2ncccc12` [Example 613, (1R,3S,5R)-2-[2-(3-Acetyl-pyrrolo[2,3-b]pyridin-1-yl)-acetyl]-2-aza-bicyclo[3.1.0]hexane-3-carboxylic acid [(S)-1-(3-chloro-2-fluoro-phenyl)-2-hydroxy-ethyl]-amide] gave an IC50 of 215 nM. Work on `CC(=O)c1cn(CC(=O)N2C[C@](C)(F)C[C@H]2C(=O)N[C@H](CO)c2cccc(Cl)c2F)c2ncccc12` [Example 614, (2S,4R)-1-[2-(3-Acetyl-pyrrolo[2,3-b]pyridin-1-yl)-acetyl]-4-fluoro-4-methyl-pyrrolidine-2-carboxylic acid [(S)-1-(3-chloro-2-fluoro-phenyl)-2-hydroxy-ethyl]-amide] yielded an IC50 of 245 nM. Work on `CC(=O)c1cn(CC(=O)N2[C@@H]3C[C@@H]3C[C@H]2C(=O)NCc2cccc(Cl)c2F)c2ccc(C(=N)N(C)C)cc12` [Example 615, (1R,3S,5R)-2-{2-[3-Acetyl-5-(N,N-dimethyl-carbamimidoyl)-indol-1-yl]-acetyl}-2-aza-bicyclo[3.1.0]hexane-3-carboxylic acid 3-chloro-2-fluoro-benzylamide] yielded an IC50 of 42 nM. Compound `CC(=O)c1cn(CC(=O)N2[C@@H]3C[C@@H]3C[C@H]2C(=O)NCc2cccc(Cl)c2F)c2cc(C(=N)N(C)C)ccc12` [Example 616, (1R,3S,5R)-2-{2-[3-Acetyl-6-(N,N-dimethyl-carbamimidoyl)-indol-1-yl]-acetyl}-2-aza-bicyclo[3.1.0]hexane-3-carboxylic acid 3-chloro-2-fluoro-benzylamide] has an IC50 of 123 nM. `CC(=O)c1cn(CC(=O)N2C[C@H](F)C[C@H]2C(=O)NCc2cccc(Cl)c2F)c2cc(-c3nnn[nH]3)ccc12` [Example 617, (2S,4R)-1-{2-[3-Acetyl-6-(1H-tetrazol-5-yl)-indol-1-yl]-acetyl}-4-fluoro-pyrrolidine-2-carboxylic acid 3-chloro-2-fluoro-benzylamide] was tested, and the IC50 was 28 nM. `CC(=O)c1cn(CC(=O)N2[C@@H]3C[C@@H]3C[C@H]2C(=O)NCc2cccc(Cl)c2F)c2cc(-c3nnn[nH]3)ccc12` [Example 618, (1R,3S,5R)-2-{2-[3-Acetyl-6-(1H-tetrazol-5-yl)-indol-1-yl]-acetyl}-2-aza-bicyclo[3.1.0]hexane-3-carboxylic acid 3-chloro-2-fluoro-benzylamide] showed an IC50 of 39 nM. For `CC(=O)c1nc(CC(=O)N2[C@@H]3C[C@@H]3C[C@H]2C(=O)NCc2cccc(Cl)c2F)n2ccccc12` [Example 621, (1R,3S,5R)-2-[2-(1-Acetyl-imidazo[1,5-a]pyridin-3-yl)-acetyl]-2-aza-bicyclo[3.1.0]hexane-3-carboxylic acid 3-chloro-2-fluoro-benzylamide], the IC50 was 19 nM. Work on `CC(=O)c1cn(CC(=O)N2[C@H](CNC(=O)Oc3cccc(Cl)c3F)C[C@H]3C[C@H]32)c2ccccc12` [Example 622, {(1R,3S,5R)-2-[2-(3-Acetyl-indol-1-yl)-acetyl]-2-aza-bicyclo[3.1.0]hex-3-ylmethyl}-carbamic acid 3-chloro-2-fluoro-phenyl ester] yielded an IC50 of 5600 nM. `CC(=O)c1nn(CC(=O)N2C[C@H](F)C[C@H]2C(=O)NCc2cccc(Cl)c2F)c2cnccc12` [Example 623, (2S,4R)-1-[2-(3-Acetyl-pyrazolo[3,4-c]pyridin-1-yl)-acetyl]-4-fluoro-pyrrolidine-2-carboxylic acid 3-chloro-2-fluoro-benzylamide formate] showed an IC50 of 24 nM. Compound `CO[C@H]1[C@@H](C(=O)N[C@H](C)c2cccc(Cl)c2F)N(C(=O)Cn2nc(C(C)=O)c3cccnc32)C[C@@H]1F` [Example 624, (2S,3S,4S)-1-[2-(3-Acetyl-pyrazolo[3,4-b]pyridin-1-yl)-acetyl]-4-fluoro-3-methoxy-pyrrolidine-2-carboxylic acid [(R)-1-(3-chloro-2-fluoro-phenyl)-ethyl]-amide] has an IC50 of 26 nM. `CC(=O)c1nn(CC(=O)N2C[C@@H]3C[C@@H]3[C@H]2C(=O)NCc2cccc(Cl)c2F)c2cnc(C)cc12` [Example 625, (1S,2S,5R)-3-[2-(3-Acetyl-5-methyl-pyrazolo[3,4-c]pyridin-1-yl)-acetyl]-3-aza-bicyclo [3.1.0]hexane-2-carboxylic acid 3-chloro-2-fluoro-benzylamide] showed an IC50 of 19 nM. Work on `CC(=O)c1nn(CC(=O)N2C[C@H](F)C[C@H]2C(=O)NCc2cccc(Cl)c2F)c2cnc(C)cc12` [Example 626, (2S,4R)-1-[2-(3-Acetyl-5-methyl-pyrazolo[3,4-c]pyridin-1-yl)-acetyl]-4-fluoro-pyrrolidine-2-carboxylic acid 3-chloro-2-fluoro-benzylamide] yielded an IC50 of 36 nM. `CC(=O)c1nn(CC(=O)N2[C@@H]3C[C@@H]3C[C@H]2C(=O)NCc2cccc(Cl)c2F)c2cnccc12` [Example 627, (1R,3S,5R)-2-[2-(3-Acetyl-pyrazolo[3,4-c]pyridin-1-yl)-acetyl]-2-aza-bicyclo [3.1.0]hexane-3-carboxylic acid 3-chloro-2-fluoro-benzylamide] showed an IC50 of 16 nM.
